Assay results from US11612605B2, “(+)-azasetron for use in the treatment of ear disorders” (SENSORION, priority 2016, dated 2023).
Where two headings read alike, the source gives them in different places.

Experiment: Pharmacokinetics study: exposure in inner ear, perilymph and tail plasma after single oral dose
Assay type: in vivo, Wistar rats
Conditions: for Total AUC Inner ear / Total AUC Perilymph / Total AUC Tail plasma / concentration at 15 min / concentration at 30 min / concentration at 60 min / concentration at 120 min / concentration at 240 min / concentration at 480 min: 10 mg/kg p.o. single dose; for concentration at 15 min / concentration at 30 min / concentration at 60 min / concentration at 120 min / concentration at 240 min / concentration at 480 min / AUC: male, Wistar, rat; for concentration at 15 min / concentration at 30 min / concentration at 60 min / concentration at 120 min / concentration at 240 min / concentration at 480 min: oral, read-out: Average Inner ear concentration (ng azasetron free-base/g tissue); for AUC: po, 10 mg/kg, 10 mg/kg p.o., per-interval AUC of azasetron free-base
Description: The 72 male Wistar rats received on 28 Jan. 2016 from Janvier (Janvier, Le Genest-St-Isle) were assigned to the study. They were divided in 3 groups of 24 animals each, one group per test article. Each group was divided in […] subgroups according to the 6-termination time-points.
72 Wistar rats were subjected to oral single dose administration of the test article, racemic azasetron hydrochloride, azasetron hydrochloride (+) or azasetron hydrochloride (−), and sacrificed at different time-points to assess the exposure of the test article in the inner ear, perilymph, and plasma. • Group racemic azasetron: 24 male Wistar, 4 rats per time-point: 10 mg/kg azasetron HCl dissolved in NaCl 0.9%. Administrated as 5 mL/kg p.o.; • Group azasetron (+): 24 male Wistar, 4 rats per time-point: 10 mg/kg (+)-azasetron HCl dissolved in NaCl 0.9%. Administrated as 5 mL/kg p.o.; • Group azasetron (−): 24 male Wistar, 4 rats per time-point: 10 mg/kg (−)-azasetron HCl dissolved in NaCl 0.9%. Administrated as 5 mL/kg p.o.
There were 6 termination time-points for each test article. At time-points 15/30/60/120/240/480 minutes after administration: peripheral plasma from the tail was sampled. The animals were sacrificed by i.v. administration of 0.25 mL/rat of a 160 mg/mL pentobarbital solution. Following sacrifice, the heart blood and both tympanic bullas (left and right) were sampled.
Both tympanic bullas (left and right) were collected, however, only the left one was used for the perilymph and inner ear analysis. The right bulla was stored at −20° C. for future needs when required. For animal IDs 1 and 4, the right bulla was used for the sampling of perilymph and inner ear.
The left bulla was dissected fresh. Briefly, the bulla was opened via the auditory opening to reveal the bone surrounding the cochlea after which the tip of the bone was removed with forceps and a 10 μL pipette tip was inserted to withdraw perilymph.
Upon exposure of the tip of the cochlea, 2 μL of perilymph (fluid) could be recovered from the bulla. The perilymph was brought to 10 μL by the addition of 8 μL water, and then extract via the addition of 30 μL of acetonitrile. After that, the samples were centrifuged and the supernatant was transferred to a glass vial appropriate for the HPLC-MS auto-sampler.
Following recovering of the perilymph, the bones of the inner ear and cochlea components were removed with fine forceps and added to a tared Eppendorf tube. The collection was weighed and brought to 10 mg with the addition of water and placed on ice until extraction. 30 μL of acetonitrile was added and the tubes were incubated in an ultrasound bath, after which they were centrifuged and the supernatant was transferred to a glass vial appropriate for the HPLC-MS auto-sampler. In the process or removing the bones of the inner ear, they were finely distributed in the media and broken by forceps. (Due to the very low volume of the tissue and its fine structure, separate grinding is considered risky vs the potential losses to plastic and media. The materials are very fine in nature and the bone particles are small thus providing only short interfaces to media. The absence of fat and the incubation in solvent is intended to provide sufficient solubility of active ingredient).
The acetonitrile used in the sample preparation for bio-analysis contained the internal standard for the HPLC-MS analysis.
30 μL acetonitrile including the internal standard were added to each 10 μL plasma sample. After adding the acetonitrile, the samples were mixed by vortex and further centrifuged. The supernatant was transferred to a glass vial appropriate for the HPLC-MS auto-sampler.
The LC system comprised an Agilent 1260 liquid chromatography equipped with a binary pump and a column oven, together with a PAL HTS-xt auto-sampler. It is linked to the AB SCIEX TRIPLE QUADTM 4500 (triple-quadrupole) instrument with an ESI interface and a switching valve integrated (Mass spectrometric analysis). […]

[1] = inner ear, Time 15 (min), read-out: Inner ear AUC (converted)
[2] = inner ear, Time 30 (min), read-out: Inner ear AUC (converted)
[3] = inner ear, Time 60 (min), read-out: Inner ear AUC (converted)
[4] = inner ear, Time 120 (min), read-out: Inner ear AUC (converted)
[5] = inner ear, Time 240 (min), read-out: Inner ear AUC (converted)
[6] = inner ear, Time 480 (min), read-out: Inner ear AUC (converted)
[7] = perilymph, Time 15 (min), read-out: Perilymph AUC (converted)
[8] = perilymph, Time 30 (min), read-out: Perilymph AUC (converted)
[9] = perilymph, Time 60 (min), read-out: Perilymph AUC (converted)
[10] = perilymph, Time 120 (min), read-out: Perilymph AUC (converted)
[11] = perilymph, Time 240 (min), read-out: Perilymph AUC (converted)
[12] = perilymph, Time 480 (min), read-out: Perilymph AUC (converted)
[13] = tail plasma, Time 15 (min), read-out: Tail plasma AUC (converted)
[14] = tail plasma, Time 30 (min), read-out: Tail plasma AUC (converted)
[15] = tail plasma, Time 60 (min), read-out: Tail plasma AUC (converted)
[16] = tail plasma, Time 120 (min), read-out: Tail plasma AUC (converted)
[17] = tail plasma, Time 240 (min), read-out: Tail plasma AUC (converted)
[18] = tail plasma, Time 480 (min), read-out: Tail plasma AUC (converted)

Row | SMILES | Total AUC Inner ear [nM·min] | Total AUC Perilymph [nM·min] | Total AUC Tail plasma [nM·min] | concentration at 15 min (inner ear, Time 15 (min)) [ng/g] | concentration at 30 min (inner ear, Time 30 (min)) [ng/g] | concentration at 60 min (inner ear, Time 60 (min)) [ng/g] | concentration at 120 min (inner ear, Time 120 (min)) [ng/g] | concentration at 240 min (inner ear, Time 240 (min)) [ng/g] | concentration at 480 min (inner ear, Time 480 (min)) [ng/g] | AUC [1] [µM·h] | AUC [2] [µM·h] | AUC [3] [µM·h] | AUC [4] [µM·h] | AUC [5] [µM·h] | AUC [6] [µM·h] | AUC [7] [µM·h] | AUC [8] [µM·h] | AUC [9] [µM·h] | AUC [10] [µM·h] | AUC [11] [µM·h] | further results
1 | CN1C(=O)COc2c(C(=O)NC3CN4CCC3CC4)cc(Cl)cc21 (racemic) [Racemic azasetron, N-(1-azabicyclo[2.2.2]octan-8-yl)-6-chloro-4-methyl-3-oxo-1,4-benzoxazine-8-carboxamide] | 43592 | 25873 | 177194 | 25 | 61 | 63 | 35 | 37 | 7 | 0.0119 | 0.0336 | 0.0887 | 0.14 | 0.204 | 0.248 | 0.0183 | 0.0328 | 0.0455 | 0.0635 | 0.117 | AUC [12]: 0.154 µM·h; AUC [13]: 0.168 µM·h; AUC [14]: 0.263 µM·h; AUC [15]: 0.309 µM·h; AUC [16]: 0.374 µM·h; AUC [17]: 0.758 µM·h; AUC [18]: 1.08 µM·h
2 | CN1C(=O)COc2c(C(=O)N[C@H]3CN4CCC3CC4)cc(Cl)cc21 [(+)-azasetron] | 69036 | 40910 | 210768 | 57 | 86 | 93 | 79 | 52 | 6 | 0.0204 | 0.051 | 0.127 | 0.246 | 0.375 | 0.331 | 0.0194 | 0.0297 | 0.0517 | 0.129 | 0.227 | AUC [12]: 0.225 µM·h; AUC [13]: 0.0983 µM·h; AUC [14]: 0.192 µM·h; AUC [15]: 0.35 µM·h; AUC [16]: 0.622 µM·h; AUC [17]: 1.11 µM·h; AUC [18]: 1.14 µM·h; exposure (total AUC) to azasetron in the perilymph, inner ear, and plasma versus racemic azasetron or (−)-azasetron (single equivalent oral dose (10 mg/kg)): greater exposure (total AUC)
